Measurements: patent US10106558B2, “Azolobenzazine compounds, compositions comprising these compounds and their use for controlling invertebrate pests” (BASF SE, priority 2015, dated 2018)

Legend:
[1] = system: tobacco budworm (Heliothis virescens); assay: Action on tobacco budworm, eggs on insect diet in 96-well microtiter plates; assay type: in vivo; settings: 120 h, egg and larval mortality visually assessed after 5 days, read-out: mortality in comparison with untreated controls
In short: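 Compounds in 25% DMSO/water sprayed (10 μl) onto insect diet holding 15–25 H. virescens eggs, two replicates at several concentrations. Held 5 days at about 28±1 °C, 80±5% RH. Egg and larval mortality scored visually.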

[2] = system: Southern Armyworm (Spodoptera eridania), 2nd instar larvae; assay: Action on southern armyworm 2nd instar larvae, sprayed lima bean plants; assay type: in vivo; settings: 96 h, 4 days after treatment, read-out: mortality in comparison with untreated controls
In short: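 Lima bean plants (Sieva, 1st true leaf) sprayed electrostatically with compound in 50% acetone/water plus 0.01% nonionic surfactant, dried, then infested with 10–11 larvae in bags. Held at about 25 °C, 20–40% RH; mortality and reduced feeding scored 4 days after treatment versus untreated plants.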

Q: Which mortality at 800 ppm [1] does the source give for `Cc1ccc(C(C)C)c(N2C(=O)CS/C2=N\N=C\c2ccc3c(ccc4c3ncn4-c3ccc(OC(F)(F)F)cc3)n2)c1` [Compound C-6, (2Z)-3-(2-isopropyl-5-methyl-phenyl)-2-[(E)-[3-[4-(trifluoromethoxy)phenyl]imidazo[4,5-f]quinolin-7-yl]methylenehydrazono]thiazolidin-4-one] here?
A: ≥ 75%

Q: And the mortality at 500 ppm [2]?
A: ≥ 75%
